Read-outs that look alike come from different tables or passages of the source.
What was measured:
Assay in all cases: biochemical
Type in all cases: binding
[1] = target: T1, panel of 442 kinases (Homo sapiens, UniProt Q9H4B4); conditions: kinase PLK3; for remaining activity at 1 µM: read-out: PLK3 (% of control at 1 µM)
T1 construct: purchased Ambit Biosciences (scanMAXX KINOMEscan)

[2] = target: T2, panel of 442 kinases (Homo sapiens, UniProt P10721, T670I/V559D); conditions: kinase KIT(V559D,T670I); for remaining activity at 1 µM: read-out: % of control at 1 µM
T2 construct: purchased Ambit Biosciences (scanMAXX KINOMEscan)
T2 sequence (P10721 26-976 V559D/T670I): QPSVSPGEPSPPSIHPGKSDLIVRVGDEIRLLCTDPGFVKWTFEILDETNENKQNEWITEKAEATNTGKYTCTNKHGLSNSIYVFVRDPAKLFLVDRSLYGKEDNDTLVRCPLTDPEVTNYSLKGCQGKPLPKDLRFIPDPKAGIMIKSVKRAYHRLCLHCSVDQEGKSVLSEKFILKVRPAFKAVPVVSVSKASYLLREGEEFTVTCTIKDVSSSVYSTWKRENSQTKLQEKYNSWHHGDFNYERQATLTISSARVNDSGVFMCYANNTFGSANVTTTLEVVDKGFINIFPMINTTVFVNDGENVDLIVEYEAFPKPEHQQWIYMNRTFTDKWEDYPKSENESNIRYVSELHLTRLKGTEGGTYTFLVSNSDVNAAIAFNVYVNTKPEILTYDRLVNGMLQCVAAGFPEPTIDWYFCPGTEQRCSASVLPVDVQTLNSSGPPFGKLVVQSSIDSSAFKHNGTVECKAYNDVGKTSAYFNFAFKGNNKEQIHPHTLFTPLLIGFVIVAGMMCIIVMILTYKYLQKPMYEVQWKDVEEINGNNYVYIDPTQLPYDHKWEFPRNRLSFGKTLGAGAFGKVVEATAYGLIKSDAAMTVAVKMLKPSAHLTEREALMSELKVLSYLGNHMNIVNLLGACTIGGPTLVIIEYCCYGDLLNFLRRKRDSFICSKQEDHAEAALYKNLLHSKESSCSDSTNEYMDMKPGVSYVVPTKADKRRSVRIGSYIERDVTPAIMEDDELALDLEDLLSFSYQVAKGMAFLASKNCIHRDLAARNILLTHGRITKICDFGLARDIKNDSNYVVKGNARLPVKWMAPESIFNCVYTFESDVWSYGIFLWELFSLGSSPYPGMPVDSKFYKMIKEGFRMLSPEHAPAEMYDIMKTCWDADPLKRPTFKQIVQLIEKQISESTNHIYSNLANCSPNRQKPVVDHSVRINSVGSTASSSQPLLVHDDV

[3] = target: T3, panel of 442 kinases (Plasmodium falciparum, UniProt P62344); conditions: kinase PFCDPK1(P.falciparum); for remaining activity at 1 µM: read-out: % of control at 1 µM; for remaining activity at 10 µM: read-out: % of control at 10 µM
T3 construct: purchased Ambit Biosciences (scanMAXX KINOMEscan)
T3 sequence (P62344 whole entry): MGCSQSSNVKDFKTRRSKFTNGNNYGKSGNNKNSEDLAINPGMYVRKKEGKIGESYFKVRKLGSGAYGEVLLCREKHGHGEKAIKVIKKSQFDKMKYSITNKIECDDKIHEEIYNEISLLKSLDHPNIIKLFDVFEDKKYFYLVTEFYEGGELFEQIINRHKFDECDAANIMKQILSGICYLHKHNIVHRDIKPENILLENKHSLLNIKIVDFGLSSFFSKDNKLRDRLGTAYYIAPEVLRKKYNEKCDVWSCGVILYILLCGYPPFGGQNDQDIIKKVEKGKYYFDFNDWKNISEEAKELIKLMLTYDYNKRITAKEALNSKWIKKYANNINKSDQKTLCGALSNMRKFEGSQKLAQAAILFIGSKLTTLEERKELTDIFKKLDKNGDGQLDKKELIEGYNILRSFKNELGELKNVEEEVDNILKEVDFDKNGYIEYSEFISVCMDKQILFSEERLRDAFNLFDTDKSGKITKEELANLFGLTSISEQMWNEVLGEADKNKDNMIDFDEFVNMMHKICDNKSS

[4] = target: T4, panel of 442 kinases (Homo sapiens, UniProt Q8NI60); conditions: ADCK3; for remaining activity at 1 µM: read-out: % of control at 1 µM
T4 construct: purchased Ambit Biosciences (scanMAXX KINOMEscan)
T4 sequence (Q8NI60 163-647): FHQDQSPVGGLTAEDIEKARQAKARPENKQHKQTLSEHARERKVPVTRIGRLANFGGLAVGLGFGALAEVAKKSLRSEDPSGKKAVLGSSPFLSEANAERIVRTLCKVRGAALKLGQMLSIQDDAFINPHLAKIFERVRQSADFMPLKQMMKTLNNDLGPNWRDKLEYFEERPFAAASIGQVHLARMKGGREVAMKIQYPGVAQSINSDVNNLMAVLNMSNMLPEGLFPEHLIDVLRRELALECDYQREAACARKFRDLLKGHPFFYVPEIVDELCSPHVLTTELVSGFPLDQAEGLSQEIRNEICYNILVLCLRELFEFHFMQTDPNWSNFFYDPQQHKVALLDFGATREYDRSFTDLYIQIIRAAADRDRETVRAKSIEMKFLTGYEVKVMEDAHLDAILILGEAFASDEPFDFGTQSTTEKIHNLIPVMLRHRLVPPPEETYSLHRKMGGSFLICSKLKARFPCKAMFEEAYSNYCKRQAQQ

[5] = target: T5, panel of 442 kinases (Homo sapiens, UniProt P07947); conditions: kinase YES; for remaining activity at 1 µM: read-out: YES (% of control at 1 µM)
T5 construct: purchased Ambit Biosciences (scanMAXX KINOMEscan)
T5 sequence (P07947 whole entry): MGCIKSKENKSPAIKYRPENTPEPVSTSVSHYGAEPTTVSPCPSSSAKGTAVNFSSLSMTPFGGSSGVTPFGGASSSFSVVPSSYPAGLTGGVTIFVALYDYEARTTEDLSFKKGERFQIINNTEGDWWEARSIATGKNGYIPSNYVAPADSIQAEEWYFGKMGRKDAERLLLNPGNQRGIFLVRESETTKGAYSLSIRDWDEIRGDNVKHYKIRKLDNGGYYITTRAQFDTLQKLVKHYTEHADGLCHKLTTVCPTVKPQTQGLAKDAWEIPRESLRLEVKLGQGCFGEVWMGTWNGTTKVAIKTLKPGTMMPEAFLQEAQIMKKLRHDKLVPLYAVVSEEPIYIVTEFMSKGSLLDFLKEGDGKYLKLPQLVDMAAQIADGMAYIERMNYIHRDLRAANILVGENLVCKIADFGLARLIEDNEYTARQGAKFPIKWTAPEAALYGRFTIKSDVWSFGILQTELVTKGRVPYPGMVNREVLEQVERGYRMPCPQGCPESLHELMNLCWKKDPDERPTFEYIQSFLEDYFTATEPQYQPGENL

[6] = target: T6, panel of 442 kinases (Homo sapiens, UniProt P15735); conditions: kinase PHKG2; for remaining activity at 1 µM: read-out: % of control at 1 µM
T6 construct: purchased Ambit Biosciences (scanMAXX KINOMEscan)
T6 sequence (P15735 1-406): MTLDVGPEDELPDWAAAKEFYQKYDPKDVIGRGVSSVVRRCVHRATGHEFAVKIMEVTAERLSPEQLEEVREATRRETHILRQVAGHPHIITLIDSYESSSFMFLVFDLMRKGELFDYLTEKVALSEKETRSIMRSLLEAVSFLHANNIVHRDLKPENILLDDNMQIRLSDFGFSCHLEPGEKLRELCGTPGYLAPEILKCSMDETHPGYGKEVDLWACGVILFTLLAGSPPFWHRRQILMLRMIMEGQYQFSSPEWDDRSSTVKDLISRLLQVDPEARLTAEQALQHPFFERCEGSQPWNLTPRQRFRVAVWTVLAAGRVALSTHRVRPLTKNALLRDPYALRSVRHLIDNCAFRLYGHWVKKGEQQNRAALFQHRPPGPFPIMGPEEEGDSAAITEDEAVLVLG

[7] = target: T7, panel of 442 kinases (Homo sapiens, UniProt P07949, M918T); conditions: kinase RET(M918T); for remaining activity at 1 µM: read-out: RET(M918T) (% of control at 1 µM)
T7 construct: purchased Ambit Biosciences (scanMAXX KINOMEscan)
T7 sequence (P07949 29-1114 M918T): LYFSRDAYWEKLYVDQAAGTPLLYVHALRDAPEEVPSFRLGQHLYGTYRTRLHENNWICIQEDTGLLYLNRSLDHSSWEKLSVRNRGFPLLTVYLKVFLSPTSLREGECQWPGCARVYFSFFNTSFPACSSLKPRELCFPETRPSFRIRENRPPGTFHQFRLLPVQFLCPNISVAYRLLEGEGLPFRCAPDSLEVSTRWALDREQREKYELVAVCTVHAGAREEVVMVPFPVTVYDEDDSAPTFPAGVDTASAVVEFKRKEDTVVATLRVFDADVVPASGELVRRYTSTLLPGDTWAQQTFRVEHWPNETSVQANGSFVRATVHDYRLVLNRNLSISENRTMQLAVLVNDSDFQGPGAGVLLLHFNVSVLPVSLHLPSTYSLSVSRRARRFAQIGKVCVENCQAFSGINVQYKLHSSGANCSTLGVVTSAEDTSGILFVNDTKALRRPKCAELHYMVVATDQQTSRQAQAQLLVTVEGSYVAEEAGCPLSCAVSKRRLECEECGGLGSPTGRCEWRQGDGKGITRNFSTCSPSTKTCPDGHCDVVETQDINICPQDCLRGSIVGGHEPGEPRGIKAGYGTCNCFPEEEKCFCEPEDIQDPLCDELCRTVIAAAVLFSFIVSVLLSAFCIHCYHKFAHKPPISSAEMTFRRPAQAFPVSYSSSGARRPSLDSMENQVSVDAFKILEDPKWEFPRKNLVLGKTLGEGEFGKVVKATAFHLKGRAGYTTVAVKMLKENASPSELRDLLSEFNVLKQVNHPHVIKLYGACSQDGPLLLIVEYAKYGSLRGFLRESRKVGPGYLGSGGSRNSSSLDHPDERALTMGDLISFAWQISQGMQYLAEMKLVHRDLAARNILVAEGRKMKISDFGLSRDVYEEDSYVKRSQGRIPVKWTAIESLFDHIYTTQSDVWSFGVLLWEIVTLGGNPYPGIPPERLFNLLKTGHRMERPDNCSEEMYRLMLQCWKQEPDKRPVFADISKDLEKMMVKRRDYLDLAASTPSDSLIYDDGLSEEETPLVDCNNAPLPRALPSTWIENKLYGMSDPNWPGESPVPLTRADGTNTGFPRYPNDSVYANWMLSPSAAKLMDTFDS

[8] = target: T8, panel of 442 kinases (Homo sapiens, UniProt O00444); conditions: kinase PLK4; for remaining activity at 1 µM: read-out: PLK4 (% of control at 1 µM)
T8 construct: purchased Ambit Biosciences (scanMAXX KINOMEscan)
T8 sequence (O00444 1-970): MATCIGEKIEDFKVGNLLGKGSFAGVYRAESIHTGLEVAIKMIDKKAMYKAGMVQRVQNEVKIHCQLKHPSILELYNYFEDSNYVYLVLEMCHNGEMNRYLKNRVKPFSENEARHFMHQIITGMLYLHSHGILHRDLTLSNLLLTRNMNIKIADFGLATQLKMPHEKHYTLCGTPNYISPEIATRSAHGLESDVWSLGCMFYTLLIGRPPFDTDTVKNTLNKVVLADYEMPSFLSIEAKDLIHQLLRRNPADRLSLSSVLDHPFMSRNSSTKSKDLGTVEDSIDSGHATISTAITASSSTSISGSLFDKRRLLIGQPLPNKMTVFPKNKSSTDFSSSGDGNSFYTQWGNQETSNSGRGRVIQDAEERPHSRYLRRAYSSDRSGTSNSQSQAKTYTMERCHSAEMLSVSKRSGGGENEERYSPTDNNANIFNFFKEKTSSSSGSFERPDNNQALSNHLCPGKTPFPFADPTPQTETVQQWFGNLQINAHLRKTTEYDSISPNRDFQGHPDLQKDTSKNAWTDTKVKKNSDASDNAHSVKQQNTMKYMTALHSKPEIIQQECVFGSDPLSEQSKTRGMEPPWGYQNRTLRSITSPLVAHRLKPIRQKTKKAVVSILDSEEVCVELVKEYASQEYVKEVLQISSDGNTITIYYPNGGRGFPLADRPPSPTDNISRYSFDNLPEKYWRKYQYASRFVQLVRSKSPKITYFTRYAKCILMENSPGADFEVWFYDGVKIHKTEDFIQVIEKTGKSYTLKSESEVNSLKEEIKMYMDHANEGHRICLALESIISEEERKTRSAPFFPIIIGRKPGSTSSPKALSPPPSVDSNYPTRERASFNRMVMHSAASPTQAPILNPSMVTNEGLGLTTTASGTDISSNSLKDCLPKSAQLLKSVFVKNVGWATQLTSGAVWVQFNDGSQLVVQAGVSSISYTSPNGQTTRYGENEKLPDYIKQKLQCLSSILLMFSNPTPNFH

[9] = target: T9, panel of 442 kinases (Homo sapiens, UniProt Q8TBX8); conditions: kinase PIP5K2C; for remaining activity at 1 µM: read-out: % of control at 1 µM
T9 construct: purchased Ambit Biosciences (scanMAXX KINOMEscan)
T9 sequence (Q8TBX8 1-421): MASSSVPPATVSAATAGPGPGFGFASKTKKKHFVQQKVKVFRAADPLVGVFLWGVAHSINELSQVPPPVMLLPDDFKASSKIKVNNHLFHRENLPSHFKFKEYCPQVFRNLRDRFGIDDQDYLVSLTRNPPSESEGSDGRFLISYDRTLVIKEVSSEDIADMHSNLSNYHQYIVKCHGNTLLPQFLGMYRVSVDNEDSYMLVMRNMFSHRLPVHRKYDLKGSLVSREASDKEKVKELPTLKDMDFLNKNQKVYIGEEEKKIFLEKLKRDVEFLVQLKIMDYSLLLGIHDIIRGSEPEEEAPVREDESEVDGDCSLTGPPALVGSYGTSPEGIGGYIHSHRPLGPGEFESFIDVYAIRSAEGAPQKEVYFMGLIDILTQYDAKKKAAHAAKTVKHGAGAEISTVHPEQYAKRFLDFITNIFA

[10] = target: T10, panel of 442 kinases (Homo sapiens, UniProt P27037); conditions: ACVR2A; for remaining activity at 1 µM: read-out: % of control at 1 µM
T10 construct: purchased Ambit Biosciences (scanMAXX KINOMEscan)
T10 sequence (P27037 20-513): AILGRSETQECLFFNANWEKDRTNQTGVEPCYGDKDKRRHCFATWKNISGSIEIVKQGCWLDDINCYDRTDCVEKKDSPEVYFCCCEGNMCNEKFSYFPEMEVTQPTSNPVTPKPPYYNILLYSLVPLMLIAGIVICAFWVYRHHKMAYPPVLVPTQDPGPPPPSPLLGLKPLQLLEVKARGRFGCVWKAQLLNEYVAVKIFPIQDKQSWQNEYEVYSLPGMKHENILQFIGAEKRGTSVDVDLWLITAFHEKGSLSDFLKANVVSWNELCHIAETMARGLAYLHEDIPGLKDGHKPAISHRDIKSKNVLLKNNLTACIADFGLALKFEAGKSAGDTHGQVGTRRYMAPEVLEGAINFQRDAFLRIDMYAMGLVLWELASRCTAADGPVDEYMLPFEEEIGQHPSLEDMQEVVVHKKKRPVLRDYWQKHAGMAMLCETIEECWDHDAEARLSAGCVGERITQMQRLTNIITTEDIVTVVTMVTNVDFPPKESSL

[11] = target: T11, panel of 442 kinases (Homo sapiens, UniProt P24941); conditions: CDK2; for remaining activity at 1 µM: read-out: % of control at 1 µM
T11 construct: purchased Ambit Biosciences (scanMAXX KINOMEscan)

[12] = target: T12, panel of 442 kinases (Homo sapiens, UniProt Q14004); conditions: for remaining activity at 1 µM: read-out: % of control at 1 µM; for remaining activity at 10 µM: read-out: % of control at 10 µM
T12 construct: purchased Ambit Biosciences (scanMAXX KINOMEscan)

[13] = 10 µM, read-out: % of control at 10 µM

T1 sequence (Q9H4B4 whole entry): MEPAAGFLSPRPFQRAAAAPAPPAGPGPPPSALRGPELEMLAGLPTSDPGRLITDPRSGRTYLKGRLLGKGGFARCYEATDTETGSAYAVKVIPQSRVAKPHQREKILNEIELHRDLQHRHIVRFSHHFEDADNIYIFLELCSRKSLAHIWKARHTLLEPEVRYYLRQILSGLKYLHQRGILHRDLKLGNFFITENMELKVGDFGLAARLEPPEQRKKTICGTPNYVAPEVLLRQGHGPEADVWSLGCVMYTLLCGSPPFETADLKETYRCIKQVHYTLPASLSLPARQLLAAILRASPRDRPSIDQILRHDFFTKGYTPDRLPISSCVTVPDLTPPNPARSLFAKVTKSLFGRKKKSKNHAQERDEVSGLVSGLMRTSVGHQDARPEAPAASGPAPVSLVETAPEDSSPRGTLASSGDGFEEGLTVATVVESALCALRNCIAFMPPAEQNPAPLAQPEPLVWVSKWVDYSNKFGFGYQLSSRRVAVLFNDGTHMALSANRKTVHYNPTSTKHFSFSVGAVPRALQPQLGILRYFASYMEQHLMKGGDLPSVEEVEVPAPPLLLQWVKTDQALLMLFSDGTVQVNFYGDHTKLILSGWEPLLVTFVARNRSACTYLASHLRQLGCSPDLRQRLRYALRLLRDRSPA

Row | Structure (SMILES) | remaining activity at 1 µM [1] [%] | remaining activity at 1 µM [2] [%] | remaining activity at 1 µM [3] [%] | remaining activity at 10 µM [3] [%] | remaining activity at 1 µM [4] [%] | remaining activity at 1 µM [5] [%] | remaining activity at 1 µM [6] [%] | remaining activity at 1 µM [7] [%] | remaining activity at 1 µM [8] [%] | remaining activity at 1 µM [9] [%] | remaining activity at 1 µM [10] [%] | remaining activity at 1 µM [11] [%] | remaining activity at 1 µM ([12]; CDC2L5, 1 µM) [%] | remaining activity at 10 µM ([12]; CDC2L5) [%] | also measured
1 | Nc1cc(C(F)(F)F)c(-c2cc(N3CCOCC3)nc(N3CCOCC3)n2)cn1 [Buparlisib] | 97 | 90 | 99 | 100 | 100 | 100 | 100 | 100 | 93 | 71 | 100 | 84 | 75 | 100 | remaining activity at 10 µM ([1]; 10 µM, read-out: PLK3 (% of control at 10 µM)): 100%; remaining activity at 10 µM [2, 13]: 70%; remaining activity at 10 µM [4, 13]: 89%; remaining activity at 10 µM ([5]; 10 µM, read-out: YES (% of control at 10 µM)): 100%; remaining activity at 10 µM [6, 13]: 100%; remaining activity at 10 µM ([7]; 10 µM, read-out: RET(M918T) (% of control at 10 µM)): 95%; remaining activity at 10 µM ([8]; 10 µM, read-out: PLK4 (% of control at 10 µM)): 87%; remaining activity at 10 µM [9, 13]: 46%; remaining activity at 10 µM [10, 13]: 100%; remaining activity at 10 µM [11, 13]: 100%
2 | Cn1c(=O)n(-c2ccc(C(C)(C)C#N)cc2)c2c3cc(-c4cnc5ccccc5c4)ccc3ncc21 [Dactolisib, 2-methyl-2-[4-(3-methyl-2-oxo-8-quinolin-3-yl-2,3-dihydroimidazo[4,5-c]quinolin-1-yl)-phenyl] propionitrile] | 88 | 64 | 89 | – | 82 | 100 | 100 | 100 | 94 | 89 | 89 | 78 | 87 | – | –
3 | COc1ncc(-c2ccc3nccc(-c4ccnnc4)c3c2)cc1NS(=O)(=O)c1ccc(F)cc1F [Omipalisib] | 82 | 100 | 100 | – | 87 | 100 | 100 | 100 | 61 | 56 | 100 | 100 | 100 | – | –
4 | CS(=O)(=O)N1CCN(Cc2cc3nc(-c4cccc5[nH]ncc45)nc(N4CCOCC4)c3s2)CC1 [Pictilisib, 2-(1H-indazol-4-yl)-6-(4-methanesulfonyl-piperazin-1-ylmethyl)-4-morpholin-4-yl-t hieno[3,2-d]pyrimidine] | – | – | 100 | 63 | – | – | – | – | – | – | – | – | 70 | 100 | –
5 | FC(F)c1nc2ccccc2n1-c1nc(N2CCOCC2)nc(N2CCOCC2)n1 [ZSTK474, 2-(difluoromethyl)-1-[4,6-di(4-morpholinyl)-1,3,5-triazin-2-yl]-1H-benzimidazole] | 83 | 98 | 82 | – | 82 | 100 | 100 | 89 | 84 | 100 | 100 | 74 | – | – | remaining activity at 1 µM [12]: 100%

Reference: article PMC5564600 (Oncotarget, 2017)
